{
  "source": "a melting point compilation (Tetko et al.; mined from patent text by program, amines drawn as free bases though some values may be those of a salt)",
  "data": [
    {"units": {"melting point": "°C"}, "values": [
      {"smiles": "O=C1Nc2cccnc2N(C(=O)N2CCC(CCN3CCCCC3)CC2)c2ccccc21", "melting point": "178 to 180"},
      {"smiles": "CCCc1ccc(-n2ncc(C#N)c2NC(C)=O)c(Cl)c1", "melting point": "143 to 144"},
      {"smiles": "Cc1cc(C#CC2CC2)cc(C)c1Oc1ccc([N+](=O)[O-])c(Nc2ccc(C#N)cc2)n1", "melting point": "188 to 192"},
      {"smiles": "Cc1c(-c2ccncc2)[nH]c2c1C(=O)CC(C)C2", "note": "(stereo not drawn)", "melting point": "247 to 248"},
      {"smiles": "O=C(Nc1ccncc1)c1ccc(-c2ccc3nnn(Cc4ccc5ncccc5c4)c3n2)cc1F", "melting point": "217 to 219"},
      {"smiles": "COc1ccc2[nH]cc(C=C3OC(=O)N(Cc4cc(C(F)(F)F)cc(C(F)(F)F)c4)C3=O)c2c1", "melting point": "147 to 149"},
      {"smiles": "O=C(NCCCn1cncn1)c1ccc(I)cc1", "melting point": "132 to 134"},
      {"smiles": "O=C(NCc1ccc(Cl)cc1)c1cc2c3c(cc(CN4CCOCC4)cn3c1=O)CCC2", "melting point": "200 to 201"},
      {"smiles": "CCOC(=O)Cc1c2cc(F)ccc2n2c(-c3ccc(S(C)=O)cc3)nccc12", "note": "(stereo not drawn)", "melting point": "133 to 135"},
      {"smiles": "Clc1cccc(-c2n[nH]cc2-c2ccnc(NCCc3ccccc3)c2)c1", "melting point": "185 to 186"},
      {"smiles": "Nc1ccc(-c2cc3ccccn3c2C(=O)CCC(=O)O)cc1", "melting point": "86 to 88"},
      {"smiles": "COc1ccc(C2(C#Cc3ccc(C#N)s3)CCC(=O)CC2)cc1OC1CCCC1", "melting point": "106 to 107"},
      {"smiles": "CCOCc1nc2c(N)nc3ccccc3c2n1CCCCS(=O)(=O)N1CCCCC1", "melting point": "185 to 188"},
      {"smiles": "O=[N+]([O-])c1ccc(NC2CC2)nc1Nc1ccc2[nH]ncc2c1", "melting point": "237 to 240"},
      {"smiles": "CCc1noc(-c2ncn(-c3cccc(OC)c3)c2COC)n1", "melting point": "66 to 68"},
      {"smiles": "Fc1ccc(Cc2ccc(NC3=NCCN3)cc2)cc1", "melting point": "110 to 112"},
      {"smiles": "COc1ccc2c(c1O)C(=O)CC(c1ccc(F)cc1)=N2", "melting point": "60 to 62"},
      {"smiles": "Cc1c(N2CC(F)C(CN)C2)c(F)cc2c(=O)n(N)c(=O)n(C3CC3)c12", "note": "(stereo not drawn)", "melting point": "170 to 172"},
      {"smiles": "CCOC(=O)C1=C(C)NC(C=O)=C(C(=O)OCC)C1c1ccccc1Cl", "note": "(stereo not drawn)", "melting point": "87 to 88"},
      {"smiles": "CC(=O)SCc1nccc(SCCCSc2ccc3ncc([N+](=O)[O-])n3n2)c1C", "melting point": "138 to 140"},
      {"smiles": "COc1cccc(N(C)C(=O)C(C)Br)c1", "note": "(stereo not drawn)", "melting point": "55 to 56"},
      {"smiles": "CC1(N)CCN(c2c(F)c(F)c3c(=O)c(C(=O)O)cn(C4CC4)c3c2F)C1", "note": "(stereo not drawn)", "melting point": "280 to 282"},
      {"smiles": "COC(=O)c1nc(OC)n(C)c1C(=O)OC", "melting point": "62 to 63"},
      {"smiles": "COc1ccc(S(=O)(=O)N(CC(N)=O)c2ccc(C)cc2Cc2ccccc2Cl)cc1OC", "melting point": 141},
      {"smiles": "OCc1nn(-c2ccccc2)c2c1CCCC2", "melting point": "75 to 77"},
      {"smiles": "Nc1c([N+](=O)[O-])cc(O)cc1[N+](=O)[O-]", "melting point": 230},
      {"smiles": "O=C1c2ccc(O)cc2C(=O)N1c1ccc(C2(c3ccc(N4C(=O)c5ccc(O)cc5C4=O)cc3)c3ccccc3-c3ccccc32)cc1", "melting point": "> 300"},
      {"smiles": "CC(=O)OCC1OC(n2cc(C(I)=CI)c(=O)[nH]c2=O)C(OC(C)=O)C1OC(C)=O", "note": "(stereo not drawn)", "melting point": "83 to 85"},
      {"smiles": "Cc1noc(NS(=O)(=O)c2ccc(-c3ccccc3)cc2)c1Cl", "melting point": "129 to 132"},
      {"smiles": "CC(=O)NC1CCN(CCCCl)CC1", "melting point": "74 to 77"},
      {"smiles": "C[C@@H]1C(=O)N(C(=O)N2CCOCC2)Cc2ccccc2[C@@H]1C", "note": "(relative stereo)", "melting point": "184 to 185"},
      {"smiles": "O=C(Nc1ccccc1)OCc1ccccc1", "melting point": "92 to 96"},
      {"smiles": "CC(C)(C)OC(=O)NCCCCC(=O)NCCC(=O)OCc1ccccc1", "melting point": "69 to 70"},
      {"smiles": "CC(C)(C)c1cc(NN=Cc2ccc(C(=O)O)cc2)cc(C(C)(C)C)c1", "melting point": "208 to 213"},
      {"smiles": "OCC#Cc1cccc2ccncc12", "melting point": "138 to 139"},
      {"smiles": "O=C(NCCC12CC3CC(CC(C3)C1)C2)c1cc(-c2ccccc2C(=O)O)ccc1Cl", "melting point": "114 to 117"},
      {"smiles": "COc1c(CC(=O)O)c2c(c3c1OC(C)(C)C3)C(c1ccccc1)=NC(C)(C)C2", "melting point": "225 to 245"},
      {"smiles": "O=C(O)C1=Cc2cc(Oc3ccccc3)ccc2OC1C(F)(F)F", "note": "(stereo not drawn)", "melting point": "185 to 186"},
      {"smiles": "CCCCCCc1nc2ccccc2n1Cc1ccc(C(=O)O)cc1", "melting point": "191 to 193"},
      {"smiles": "CN1CCN(Cc2nc(C(N)=O)nn2-c2ccc(Cl)cc2C(=O)c2ccccc2Cl)CC1", "melting point": "167 to 169"},
      {"smiles": "Cc1ccc(CN(C)CCOc2ccc(NC(=O)c3cccc4c(=O)c5ccccc5[nH]c34)cc2)cc1", "melting point": 168},
      {"smiles": "CCCCn1c(=O)c2c(ncn2S(=O)(=O)c2ccc(OC)c(OC)c2)n(CCCC)c1=O", "melting point": "134 to 135"},
      {"smiles": "CCO/C=C/C(=O)Nc1ccc(Br)cc1C", "melting point": "163 to 164"},
      {"smiles": "Cc1cc(C(F)(F)F)cnc1O", "melting point": "141 to 143"},
      {"smiles": "CCC1(CC)c2cc(-c3nc4ccccc4s3)ccc2-c2ccc(N(c3ccc(O)cc3)c3ccc(O)cc3)cc21", "melting point": "294 to 297"},
      {"smiles": "Cc1cc(Oc2ccc(N)cc2)ccc1-c1ccc(Oc2ccc(N)cc2)cc1C", "melting point": 140},
      {"smiles": "CCN(CCNS(=O)(=O)c1ccc(C)cc1)C(=O)c1ccccc1C(=O)c1ccc(Cl)cc1", "melting point": "145 to 147"},
      {"smiles": "COC(=O)c1ccc2c(c1)Sc1ccc(C(C)N(O)C(N)=O)cc1CC2", "note": "(stereo not drawn)", "melting point": "167 to 169"},
      {"smiles": "c1ccc(OCCSCc2nnc(-c3ccc(OCCN4CCCC4)cc3)o2)cc1", "melting point": 65},
      {"smiles": "Nc1nc(C(Br)Br)nc(C(Br)Br)n1", "melting point": "171 to 173"},
      {"smiles": "C[C@H]1C[C@@](O)(c2cccc(S(=O)(=O)c3ccc4c(c3F)CCC(=O)N4C)c2)CCO1", "melting point": "149 to 151"},
      {"smiles": "Cc1cc(C#N)cnc1Oc1c(Cl)cc(NC(=O)NC(=O)c2c(Cl)cccc2Cl)cc1Cl", "melting point": "245 to 246"},
      {"smiles": "COc1cccc2c1CCC=C2N1CCOCC1", "melting point": "80 to 90"},
      {"smiles": "O=C(CBr)c1ccc(OCc2ccccc2)c(OCc2ccccc2)c1Cl", "melting point": "94 to 96"},
      {"smiles": "CCCn1nnn(-c2cc(OC(C)C)c(CBr)cc2Cl)c1=O", "melting point": "68 to 70"},
      {"smiles": "Cc1cccc(C(=O)n2nc(Nc3cccc(OCC(=O)NCCN4CCOCC4)c3)nc2N)c1", "melting point": "145 to 147"},
      {"smiles": "CC(C)(C)c1ccc(O)cc1Cl", "melting point": "65 to 67"},
      {"smiles": "O=C(OCc1ccccc1O)c1cc(O)c2c(c1)C(=O)c1cccc(O)c1C2=O", "melting point": "125 to 130"},
      {"smiles": "COc1ccc(C(=C(c2ccccc2)C(F)(F)F)c2ccc(F)cc2)cc1", "melting point": "52 to 56"},
      {"smiles": "OCc1nc2cnc3ccccc3c2n1Cc1ccccc1", "melting point": "211 to 213"},
      {"smiles": "O=C1C(=Cc2ccccc2)N2CCC1C2", "note": "(stereo not drawn)", "melting point": "61 to 63"},
      {"smiles": "N#CCC(=O)N[C@H]1CC[C@H](CCN2CCC(c3cccc4c3CCO4)CC2)CC1", "melting point": 194},
      {"smiles": "COC(=O)c1ccc2c(c1)N(C(=O)N1CCC(c3cccnc3)C1)CCO2", "note": "(stereo not drawn)", "melting point": 61},
      {"smiles": "O=c1[nH]c2ccccc2c(=O)n1CCCN1CCC(OC(c2ccccc2)c2ccccc2)CC1", "melting point": "173 to 175"},
      {"smiles": "CCNC(=O)Nc1nc2cc(-c3cccnc3)cc(N3CCC(N(C)C)C3)n2n1", "note": "(stereo not drawn)", "melting point": "248 to 250"},
      {"smiles": "Nc1nc(-n2cc(C(=O)O)c(=O)c3cc(F)c(N4CC(O)C4)c(Br)c32)c(F)cc1F", "melting point": "215 to 220"},
      {"smiles": "CCn1cc(C(=O)O)c(=O)c2cc(F)c(N3CCNC(c4ccco4)C3)cc21", "note": "(stereo not drawn)", "melting point": 198},
      {"smiles": "CCCS(=O)(=O)c1cc([C@H]2CC[C@H](c3cc(OC)c(OC)c(OC)c3)O2)cc(OC)c1OCCSc1ccc(N(C)C)cc1", "note": "(relative stereo)", "melting point": "113 to 115"}
    ]}
  ]
}
